This note sets out measurements from patent EP2818472A1, “Imidazo[4,5-c]pyridine and pyrrolo[3,2-c]pyridine compounds as G-protein-coupled receptor kinase 5 (GRK5) modulators” (Max-Planck-Gesellschaft zur Förderung der Wissenschaften …, priority 2013, dated 2014).

One test has as its system beta-TC6 cells. Description: Insulin HTRF assay (relative activity Ar) in beta-TC6 cells. As to conditions: Mus musculus, Beta-TC6, 4 h, insulin HTRF, supernatant of beta-TC6 cells, incubation with test compound at 37°C for 2, 3, 4h; read-out: Ar (relative activity). In kind it is cell-based, mouse. An outline of the steps:
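beta-TC6 cells (15k/well, seeded 24 or 48 h) washed, then exposed to compound in induction buffer (0.5% DMSO final) for 2, 3 or 4 h at 37°C.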
On to `CN(C)C(=O)c1ccc(-c2cc3cnc(N(C)c4ccccc4)cc3n2C)cc1` [Compound 52, N,N-dimethyl-4-[1-methyl-6-(N-methylanilino)pyrrolo[3,2-c]pyridin-2-yl]benzamide], for which the Emax is 30 to 50%.

On to `CNc1nc2cnc(-c3ccsc3)cc2n1Cc1ccc(OC)c(OC)c1` [Compound 877, 1-[(3,4-dimethoxyphenyl)methyl]-N-methyl-6-(3-thienyl)imidazo[4,5-c]pyridin-2-amine], for which the Emax lay within 30 to 50%.

As for `COc1ccc(Nc2nccc3[nH]c(-c4cccnc4)cc23)cn1` [Compound 233, N-(6-methoxy-3-pyridyl)-2-(3-pyridyl)-1H-pyrrolo[3,2-c]pyridin-4-amine], the Emax lay in the range of 50 to 100%.

With `Fc1cccc(-c2cc3c(Nc4cccnc4)nccc3[nH]2)c1` [Compound 200, 2-(3-fluorophenyl)-N-(3-pyridyl)-1H-pyrrolo[3,2-c]pyridin-4-amine], the Emax lay in the range of 30 to 50%.

On to `COc1cccc(-c2nc3c(Nc4cc(OC)c(OC)c(OC)c4)nccc3[nH]2)c1F` [Compound 467, 2-(2-fluoro-3-methoxy-phenyl)-N-(3,4,5-trimethoxyphenyl)-1H-imidazo[4,5-c]pyridin-4-amine], for which the Emax is greater than 100%.

Regarding `CC(=O)N(C)c1cccc(-c2cc3cnc(Nc4cccc(O)c4)cc3n2C)c1` [Compound 170, N-[3-[6-(3-hydroxyanilino)-1-methyl-pyrrolo[3,2-c]pyridin-2-yl]phenyl]-N-methyl-acetamide], the Emax fell in the range of 50 to 100%.

On to `Cn1c(Nc2ccccc2)nc2cnc(Nc3ccncc3)cc21` [Compound 636, 1-methyl-N2-phenyl-N6-(4-pyridyl)imidazo[4,5-c]pyridine-2,6-diamine], for which the Emax is 50 to 100%.

Turning to `Cn1c(-c2cccnc2)cc2cnc(Nc3ccc4c(c3)OCCO4)cc21` [Compound 84, N-(2,3-dihydro-1,4-benzodioxin-6-yl)-1-methyl-2-(3-pyridyl)pyrrolo[3,2-c]pyridin-6-amine], the Emax fell in the range of 50 to 100%.

`COc1ccc(Nc2nccc3c2cc(-c2ccc(N(C)C)cc2)n3C)cc1O` [Compound 228, 5-[[2-(4-dimethylaminophenyl)-1-methyl-pyrrolo[3,2-c]pyridin-4-yl]amino]-2-methoxy-phenol]: the Emax is 50 to 100%.

In the case of `CNc1nc2cnc(-c3cccc(O)c3)cc2n1Cc1ccccc1` [Compound 533, 3-[1-benzyl-2-(methylamino)imidazo[4,5-c]pyridin-6-yl]phenol], the Emax lay within 50 to 100%.

As to `CNc1nc2cnc(Nc3cccc(C)c3)cc2n1Cc1ccc(OC)c(OC)c1` [Compound 671, 1-[(3,4-dimethoxyphenyl)methyl]-N2-methyl-N6-(m-tolyl)imidazo[4,5-c]pyridine-2,6-diamine], the Emax was 30 to 50%.

In the case of `COc1ccc(OC)c(CCNc2nc3cnc(-c4cccc(NS(C)(=O)=O)c4)cc3n2C)c1` [Compound 825, N-[3-[2-[2-(2,5-dimethoxyphenyl)ethylamino]-1-methyl-imidazo[4,5-c]pyridin-6-yl]phenyl]methanesulfonamide], the Emax lay within 0 to 30%.

Consider `COc1ccccc1-c1cc2c(Nc3cccc(O)c3)nccc2[nH]1` [Compound 297, 3-[[2-(2-methoxyphenyl)-1H-pyrrolo[3,2-c]pyridin-4-yl]amino]phenol], for which the Emax was 30 to 50%.

For the compound `COc1cc(-n2cnc3cnc(-c4cccc(C(N)=O)c4)cc32)cc(OC)c1OC` [Compound 732, 3-[1-(3,4,5-trimethoxyphenyl)imidazo[4,5-c]pyridin-6-yl]benzamide], the Emax fell in the range of 30 to 50%.

For the compound `COc1ccc(OC)c(CCNc2nc3cnc(-c4cccs4)cc3n2C)c1` [Compound 595, N-[2-(2,5-dimethoxyphenyl)ethyl]-1-methyl-6-(2-thienyl)imidazo[4,5-c]pyridin-2-amine], the Emax was in the range of 30 to 50%.

In the case of `COc1cccc(Nc2cc3[nH]c(-c4cn[nH]c4)cc3cn2)c1` [Compound 110, N-(3-methoxyphenyl)-2-(1H-pyrazol-4-yl)-1H-pyrrolo[3,2-c]pyridin-6-amine], the Emax is greater than 100%.

For the compound `Cn1c(Nc2cccc(C(F)(F)F)c2)nc2cnc(-c3ccc(N)nc3)cc21` [Compound 590, 6-(6-amino-3-pyridyl)-1-methyl-N-[3-(trifluoromethyl)phenyl]imidazo[4,5-c]pyridin-2-amine], the Emax was 50 to 100%.

In the case of `Cn1c(Nc2ccccc2)nc2cnc(-c3cccc4ccccc34)cc21` [Compound 635, 1-methyl-6-(1-naphthyl)-N-phenyl-imidazo[4,5-c]pyridin-2-amine], the Emax is 30 to 50%.

For `COc1ccc(Nc2cc3c(cn2)nc(-c2ccc(OC)c(OC)c2)n3C)cc1` [Compound 721, 2-(3,4-dimethoxyphenyl)-N-(4-methoxyphenyl)-1-methyl-imidazo[4,5-c]pyridin-6-amine], the Emax was in the range of 50 to 100%.

In the case of `CS(=O)(=O)c1ccc(Nc2nccc3[nH]c(-c4cccc(C(F)(F)F)c4)cc23)cc1` [Compound 197, N-(4-methylsulfonylphenyl)-2-[3-(trifluoromethyl)phenyl]-1H-pyrrolo[3,2-c]pyridin-4-amine], the Emax lay in the range of 30 to 50%.

For `c1ccc(-c2cc3cnc(N4CCOCC4)cc3[nH]2)cc1` [Compound 181, 4-(2-phenyl-1H-pyrrolo[3,2-c]pyridin-6-yl)morpholine], the Emax is greater than 100%.

Turning to `CN(C)C(=O)c1ccc(-c2cc3cnc(Nc4ccc(Oc5ccccc5)cc4)cc3[nH]2)cc1` [Compound 25, N,N-dimethyl-4-[6-(4-phenoxyanilino)-1H-pyrrolo[3,2-c]pyridin-2-yl]benzamide], the Emax lay within 0 to 30%.

Take `CC(=O)Nc1cccc(-c2cc3c(cn2)nc(NCc2cccc(C)c2)n3C)c1` [Compound 580, N-[3-[1-methyl-2-(m-tolylmethylamino)imidazo[4,5-c]pyridin-6-yl]phenyl]acetamide]: the Emax lay in the range of 30 to 50%.

For `CNc1nc2cnc(Nc3cccc(C(C)=O)c3)cc2n1-c1cccc(F)c1` [Compound 689, 1-[3-[[1-(3-fluorophenyl)-2-(methylamino)imidazo[4,5-c]pyridin-6-yl]amino]phenyl]ethanone], the Emax fell in the range of 50 to 100%.

Take `CC(=O)c1cccc(Nc2cc3[nH]c(-c4cnn(C)c4)cc3cn2)c1` [Compound 124, 1-[3-[[2-(1-methylpyrazol-4-yl)-1H-pyrrolo[3,2-c]pyridin-6-yl]amino]phenyl]ethanone]: the Emax was greater than 100%.

On to `c1ccc(Cn2cnc3c(NCc4ccco4)nccc32)cc1` [Compound 451, 1-benzyl-N-(2-furylmethyl)imidazo[4,5-c]pyridin-4-amine], for which the Emax is 0 to 30%.

Turning to `COc1cc(Nc2cc3c(cn2)ncn3C)cc(OC)c1OC` [Compound 725, 1-methyl-N-(3,4,5-trimethoxyphenyl)imidazo[4,5-c]pyridin-6-amine], the Emax was in the range of 30 to 50%.

Take `c1ccc(-c2nc3c(NCC4CC4)nccc3[nH]2)cc1` [Compound 339, N-(cyclopropylmethyl)-2-phenyl-1H-imidazo[4,5-c]pyridin-4-amine]: the Emax lay within 30 to 50%.

As to `COc1ccc(Nc2nccc3[nH]c(-c4ccc(OC)cc4)nc23)cc1` [Compound 395, N,2-bis(4-methoxyphenyl)-1H-imidazo[4,5-c]pyridin-4-amine], the Emax fell in the range of 50 to 100%.

Staying with this test, now noted: insulin HTRF, supernatant of beta-TC6 cells, incubation with test compound at 37°C for 2, 3, 4h.
For the compound `CNc1nc2cnc(-c3ccc(N(C)C)cc3)cc2n1-c1ccccc1` [Compound 781, 6-(4-dimethylaminophenyl)-N-methyl-1-phenyl-imidazo[4,5-c]pyridin-2-amine], the “Ar (relative activity)” value is “+++ (50 % ≤ Ar < 100 %)”.
